From the supplement of paper PMC4862054

System: CAL-51
Assay: normalised viability (% of control), CellTiter-Blue; higher = more viable cells (about 100 = DMSO control)
Settings: 0.25 nM; incubation time: 72 h
Experimental: (§1)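 DSRT, CellTiter-Blue viability, 72 h incubation. Signal is normalised to DMSO and benzethonium chloride controls. Value is the normalised response at dose 3.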

SMILES	normalised viability
CC(=O)Nc1cccc(-n2c(=O)n(C3CC3)c(=O)c3c(Nc4ccc(I)cc4F)n(C)c(=O)c(C)c32)c1	90.4%

Same assay, conditions: 1 nM; incubation time: 72 h

SMILES	normalised viability
COc1cc2c(Oc3ccc4[nH]c(C)cc4c3F)ncnc2cc1OCCCN1CCCC1 [Cediranib]	87.2%
C=CC(=O)N1CCC[C@@H](n2nc(-c3ccc(Oc4ccccc4)cc3)c3c(N)ncnc32)C1	95%
Cc1cnc(NC(=O)Nc2cc(Br)c(C)cc2OC[C@@H]2CNCCO2)cn1	95%

Same assay, conditions: 10 nM; incubation time: 72 h

SMILES	normalised viability
Nc1nc2[nH]cc(CCc3ccc(C(=O)N[C@@H](CCC(=O)O)C(=O)O)cc3)c2c(=O)[nH]1 [Pemetrexed]	108%
C[C@H]1C[C@@H]2[C@H]([C@@H](O)C[C@@]3(C)[C@H]2CC[C@]3(O)C(=O)CO)[C@@]2(C)C=CC(=O)C=C12 [Methylprednisolone]	101%
COc1cc([C@@H]2c3cc4c(cc3[C@@H](O[C@@H]3O[C@@H]5CO[C@@H](c6cccs6)O[C@H]5[C@H](O)[C@H]3O)[C@H]3COC(=O)[C@H]23)OCO4)cc(OC)c1O [Teniposide]	95%
CCc1cncnc1N1CCN(Cc2nc3ccc(C(F)(F)F)cc3[nH]2)CC1	87%
Oc1ncc(N(CCCl)CCCl)c(O)n1 [Uracil mustard]	98.6%
COc1cc2nccc(Oc3ccc(NC(=O)Nc4cc(C)on4)c(Cl)c3)c2cc1OC [Tivozanib]	99%
O=C(Cc1ccc(-c2ccc(OCCN3CCOCC3)cc2)cn1)NCc1ccccc1 [KX2-391]	101%
CC1=C(/C=C/C(C)=C/C=C/C(C)=C/C(=O)O)C(C)(C)CCC1 [Tretinoin]	100%

System: MDA-MB-436
Assay: as above
Settings: 2.5 nM; incubation time: 72 h
Experimental: as §1

SMILES	normalised viability
CC(=O)Nc1cccc(-n2c(=O)n(C3CC3)c(=O)c3c(Nc4ccc(I)cc4F)n(C)c(=O)c(C)c32)c1	92.8%

Same assay, conditions: 10 nM; incubation time: 72 h

SMILES	normalised viability
COc1cc2c(Oc3ccc4[nH]c(C)cc4c3F)ncnc2cc1OCCCN1CCCC1 [Cediranib]	92.9%
C=CC(=O)N1CCC[C@@H](n2nc(-c3ccc(Oc4ccccc4)cc3)c3c(N)ncnc32)C1	88.2%
Cc1cnc(NC(=O)Nc2cc(Br)c(C)cc2OC[C@@H]2CNCCO2)cn1	112%

Same assay, conditions: 100 nM; incubation time: 72 h

SMILES	normalised viability
Nc1nc2[nH]cc(CCc3ccc(C(=O)N[C@@H](CCC(=O)O)C(=O)O)cc3)c2c(=O)[nH]1 [Pemetrexed]	97.2%
C[C@H]1C[C@@H]2[C@H]([C@@H](O)C[C@@]3(C)[C@H]2CC[C@]3(O)C(=O)CO)[C@@]2(C)C=CC(=O)C=C12 [Methylprednisolone]	94.6%
COc1cc([C@@H]2c3cc4c(cc3[C@@H](O[C@@H]3O[C@@H]5CO[C@@H](c6cccs6)O[C@H]5[C@H](O)[C@H]3O)[C@H]3COC(=O)[C@H]23)OCO4)cc(OC)c1O [Teniposide]	81.8%
CCc1cncnc1N1CCN(Cc2nc3ccc(C(F)(F)F)cc3[nH]2)CC1	99.8%
Oc1ncc(N(CCCl)CCCl)c(O)n1 [Uracil mustard]	102%
COc1cc2nccc(Oc3ccc(NC(=O)Nc4cc(C)on4)c(Cl)c3)c2cc1OC [Tivozanib]	88.1%
O=C(Cc1ccc(-c2ccc(OCCN3CCOCC3)cc2)cn1)NCc1ccccc1 [KX2-391]	59.9%
CC1=C(/C=C/C(C)=C/C=C/C(C)=C/C(=O)O)C(C)(C)CCC1 [Tretinoin]	99.5%

System: BT-474
Assay: as above
Settings: 2.5 nM; incubation time: 72 h
Experimental: as §1

SMILES	normalised viability
CC(=O)Nc1cccc(-n2c(=O)n(C3CC3)c(=O)c3c(Nc4ccc(I)cc4F)n(C)c(=O)c(C)c32)c1	119%

Same assay, conditions: 10 nM; incubation time: 72 h

SMILES	normalised viability
COc1cc2c(Oc3ccc4[nH]c(C)cc4c3F)ncnc2cc1OCCCN1CCCC1 [Cediranib]	98.4%
C=CC(=O)N1CCC[C@@H](n2nc(-c3ccc(Oc4ccccc4)cc3)c3c(N)ncnc32)C1	84.3%
Cc1cnc(NC(=O)Nc2cc(Br)c(C)cc2OC[C@@H]2CNCCO2)cn1	101%

Same assay, conditions: 100 nM; incubation time: 72 h

SMILES	normalised viability
Nc1nc2[nH]cc(CCc3ccc(C(=O)N[C@@H](CCC(=O)O)C(=O)O)cc3)c2c(=O)[nH]1 [Pemetrexed]	125%
C[C@H]1C[C@@H]2[C@H]([C@@H](O)C[C@@]3(C)[C@H]2CC[C@]3(O)C(=O)CO)[C@@]2(C)C=CC(=O)C=C12 [Methylprednisolone]	119%
COc1cc([C@@H]2c3cc4c(cc3[C@@H](O[C@@H]3O[C@@H]5CO[C@@H](c6cccs6)O[C@H]5[C@H](O)[C@H]3O)[C@H]3COC(=O)[C@H]23)OCO4)cc(OC)c1O [Teniposide]	105%
CCc1cncnc1N1CCN(Cc2nc3ccc(C(F)(F)F)cc3[nH]2)CC1	123%
Oc1ncc(N(CCCl)CCCl)c(O)n1 [Uracil mustard]	106%
COc1cc2nccc(Oc3ccc(NC(=O)Nc4cc(C)on4)c(Cl)c3)c2cc1OC [Tivozanib]	112%
O=C(Cc1ccc(-c2ccc(OCCN3CCOCC3)cc2)cn1)NCc1ccccc1 [KX2-391]	63.5%
CC1=C(/C=C/C(C)=C/C=C/C(C)=C/C(=O)O)C(C)(C)CCC1 [Tretinoin]	122%

System: MFM-223
Assay: normalised viability (% of control), CellTiter-Blue; higher = more viable cells (100 = DMSO, 0 = benzethonium chloride kill control)
Settings: 0.025 nM; incubation time: 72 h
Experimental: (§2)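 DSRT, CellTiter-Blue viability, 72 h incubation. Signal is normalised to DMSO and benzethonium chloride controls. Value is the normalised response at dose 1.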

SMILES	normalised viability
CC(=O)Nc1cccc(-n2c(=O)n(C3CC3)c(=O)c3c(Nc4ccc(I)cc4F)n(C)c(=O)c(C)c32)c1	105%

Same assay, conditions: 0.1 nM; incubation time: 72 h

SMILES	normalised viability
COc1cc2c(Oc3ccc4[nH]c(C)cc4c3F)ncnc2cc1OCCCN1CCCC1 [Cediranib]	101%
C=CC(=O)N1CCC[C@@H](n2nc(-c3ccc(Oc4ccccc4)cc3)c3c(N)ncnc32)C1	99.8%
Cc1cnc(NC(=O)Nc2cc(Br)c(C)cc2OC[C@@H]2CNCCO2)cn1	102%

Same assay, conditions: 1 nM; incubation time: 72 h

SMILES	normalised viability
Nc1nc2[nH]cc(CCc3ccc(C(=O)N[C@@H](CCC(=O)O)C(=O)O)cc3)c2c(=O)[nH]1 [Pemetrexed]	93.1%
C[C@H]1C[C@@H]2[C@H]([C@@H](O)C[C@@]3(C)[C@H]2CC[C@]3(O)C(=O)CO)[C@@]2(C)C=CC(=O)C=C12 [Methylprednisolone]	92.7%
COc1cc([C@@H]2c3cc4c(cc3[C@@H](O[C@@H]3O[C@@H]5CO[C@@H](c6cccs6)O[C@H]5[C@H](O)[C@H]3O)[C@H]3COC(=O)[C@H]23)OCO4)cc(OC)c1O [Teniposide]	92.1%
CCc1cncnc1N1CCN(Cc2nc3ccc(C(F)(F)F)cc3[nH]2)CC1	103%
Oc1ncc(N(CCCl)CCCl)c(O)n1 [Uracil mustard]	97.4%
COc1cc2nccc(Oc3ccc(NC(=O)Nc4cc(C)on4)c(Cl)c3)c2cc1OC [Tivozanib]	100%
O=C(Cc1ccc(-c2ccc(OCCN3CCOCC3)cc2)cn1)NCc1ccccc1 [KX2-391]	91.7%
CC1=C(/C=C/C(C)=C/C=C/C(C)=C/C(=O)O)C(C)(C)CCC1 [Tretinoin]	98%

System: MDA-MB-468
Assay: as above
Settings: 0.025 nM; incubation time: 72 h
Experimental: as §2

SMILES	normalised viability
CC(=O)Nc1cccc(-n2c(=O)n(C3CC3)c(=O)c3c(Nc4ccc(I)cc4F)n(C)c(=O)c(C)c32)c1	112%

Same assay, conditions: 0.1 nM; incubation time: 72 h

SMILES	normalised viability
COc1cc2c(Oc3ccc4[nH]c(C)cc4c3F)ncnc2cc1OCCCN1CCCC1 [Cediranib]	95.8%
C=CC(=O)N1CCC[C@@H](n2nc(-c3ccc(Oc4ccccc4)cc3)c3c(N)ncnc32)C1	103%
Cc1cnc(NC(=O)Nc2cc(Br)c(C)cc2OC[C@@H]2CNCCO2)cn1	110%

Same assay, conditions: 1 nM; incubation time: 72 h

SMILES	normalised viability
Nc1nc2[nH]cc(CCc3ccc(C(=O)N[C@@H](CCC(=O)O)C(=O)O)cc3)c2c(=O)[nH]1 [Pemetrexed]	96.9%
C[C@H]1C[C@@H]2[C@H]([C@@H](O)C[C@@]3(C)[C@H]2CC[C@]3(O)C(=O)CO)[C@@]2(C)C=CC(=O)C=C12 [Methylprednisolone]	101%
COc1cc([C@@H]2c3cc4c(cc3[C@@H](O[C@@H]3O[C@@H]5CO[C@@H](c6cccs6)O[C@H]5[C@H](O)[C@H]3O)[C@H]3COC(=O)[C@H]23)OCO4)cc(OC)c1O [Teniposide]	98.9%
CCc1cncnc1N1CCN(Cc2nc3ccc(C(F)(F)F)cc3[nH]2)CC1	109%
Oc1ncc(N(CCCl)CCCl)c(O)n1 [Uracil mustard]	104%
COc1cc2nccc(Oc3ccc(NC(=O)Nc4cc(C)on4)c(Cl)c3)c2cc1OC [Tivozanib]	98.3%
O=C(Cc1ccc(-c2ccc(OCCN3CCOCC3)cc2)cn1)NCc1ccccc1 [KX2-391]	113%
CC1=C(/C=C/C(C)=C/C=C/C(C)=C/C(=O)O)C(C)(C)CCC1 [Tretinoin]	109%

System: MFM-223
Assay: drug sensitivity score (DSS), CellTiter-Blue viability (DSS (AUC-based score)); higher = stronger viability inhibition; extreme values may be limits of the assay
Settings: incubation time: 72 h
Summary of the method: (§3)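 The drug sensitivity score was derived from the area under a fitted dose-response curve. To obtain the curves, breast cancer cells (20 µl suspension) were plated into 384-well plates with compound at 5 or 9 concentrations and kept for 72 h. Viability was measured by CellTiter-Blue fluorescence at 560/590 nm, with each plate normalised to 0.1 % DMSO and a positive kill control.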

SMILES	drug sensitivity score
COc1cc2c(Oc3ccc4[nH]c(C)cc4c3F)ncnc2cc1OCCCN1CCCC1 [Cediranib]	0
Nc1nc2[nH]cc(CCc3ccc(C(=O)N[C@@H](CCC(=O)O)C(=O)O)cc3)c2c(=O)[nH]1 [Pemetrexed]	0
C[C@H]1C[C@@H]2[C@H]([C@@H](O)C[C@@]3(C)[C@H]2CC[C@]3(O)C(=O)CO)[C@@]2(C)C=CC(=O)C=C12 [Methylprednisolone]	0
COc1cc([C@@H]2c3cc4c(cc3[C@@H](O[C@@H]3O[C@@H]5CO[C@@H](c6cccs6)O[C@H]5[C@H](O)[C@H]3O)[C@H]3COC(=O)[C@H]23)OCO4)cc(OC)c1O [Teniposide]	7.43
CCc1cncnc1N1CCN(Cc2nc3ccc(C(F)(F)F)cc3[nH]2)CC1	0
C=CC(=O)N1CCC[C@@H](n2nc(-c3ccc(Oc4ccccc4)cc3)c3c(N)ncnc32)C1	0
Oc1ncc(N(CCCl)CCCl)c(O)n1 [Uracil mustard]	0
Cc1cnc(NC(=O)Nc2cc(Br)c(C)cc2OC[C@@H]2CNCCO2)cn1	0
COc1cc2nccc(Oc3ccc(NC(=O)Nc4cc(C)on4)c(Cl)c3)c2cc1OC [Tivozanib]	10.4
O=C(Cc1ccc(-c2ccc(OCCN3CCOCC3)cc2)cn1)NCc1ccccc1 [KX2-391]	17.9
CC(=O)Nc1cccc(-n2c(=O)n(C3CC3)c(=O)c3c(Nc4ccc(I)cc4F)n(C)c(=O)c(C)c32)c1	0
CC1=C(/C=C/C(C)=C/C=C/C(C)=C/C(=O)O)C(C)(C)CCC1 [Tretinoin]	0

System: MDA-MB-468
Assay: as above
Settings: incubation time: 72 h
Summary of the method: as §3

SMILES	drug sensitivity score
COc1cc2c(Oc3ccc4[nH]c(C)cc4c3F)ncnc2cc1OCCCN1CCCC1 [Cediranib]	0
Nc1nc2[nH]cc(CCc3ccc(C(=O)N[C@@H](CCC(=O)O)C(=O)O)cc3)c2c(=O)[nH]1 [Pemetrexed]	0
C[C@H]1C[C@@H]2[C@H]([C@@H](O)C[C@@]3(C)[C@H]2CC[C@]3(O)C(=O)CO)[C@@]2(C)C=CC(=O)C=C12 [Methylprednisolone]	0
COc1cc([C@@H]2c3cc4c(cc3[C@@H](O[C@@H]3O[C@@H]5CO[C@@H](c6cccs6)O[C@H]5[C@H](O)[C@H]3O)[C@H]3COC(=O)[C@H]23)OCO4)cc(OC)c1O [Teniposide]	10.9
CCc1cncnc1N1CCN(Cc2nc3ccc(C(F)(F)F)cc3[nH]2)CC1	0
C=CC(=O)N1CCC[C@@H](n2nc(-c3ccc(Oc4ccccc4)cc3)c3c(N)ncnc32)C1	3.83
Oc1ncc(N(CCCl)CCCl)c(O)n1 [Uracil mustard]	0
Cc1cnc(NC(=O)Nc2cc(Br)c(C)cc2OC[C@@H]2CNCCO2)cn1	0
COc1cc2nccc(Oc3ccc(NC(=O)Nc4cc(C)on4)c(Cl)c3)c2cc1OC [Tivozanib]	0
O=C(Cc1ccc(-c2ccc(OCCN3CCOCC3)cc2)cn1)NCc1ccccc1 [KX2-391]	16.6
CC(=O)Nc1cccc(-n2c(=O)n(C3CC3)c(=O)c3c(Nc4ccc(I)cc4F)n(C)c(=O)c(C)c32)c1	2.67
CC1=C(/C=C/C(C)=C/C=C/C(C)=C/C(=O)O)C(C)(C)CCC1 [Tretinoin]	0
